In patent US9458172B2, “Pyridinyl and pyrimidinyl sulfoxide and sulfone derivatives” (priority 2012, dated 2016):
Like-named read-outs stand apart in the source and are kept apart here.

Assays:
[1] = system: A2780 cells; experiment: In-Vitro Cell Proliferation Assay (SRB)
[2] = target: NAMPT (Homo sapiens (Human), UniProt P43490); experiment: Biochemical Inhibition Assay (NAMPT enzymatic reaction, NMN quantified by mass spectrometry); conditions: 33 nM recombinant His-tagged NAMPT, 1 μM NAM, 30 min at rt
Method in brief: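 His-tagged human NAMPT from E. coli preincubated 15 min at rt with compound in 50 mM Hepes pH 7.5, 50 mM NaCl, 5 mM MgCl2, 1 mM THP, then reacted 30 min at rt with 1 μM NAM, […] PRPP, 2.5 mM ATP. NMN quantified by RapidFire mass spectrometry, normalized to L-Cystathionine, background subtracted.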

[3] = read-out: Cell Proliferation (IC50), A2780 cells, 72 h, sulforhodamine B
[4] = Homo sapiens, A2780, 72 h, read-out: Cell Proliferation (IC50), A2780 cells, 72 h, sulforhodamine B
[5] = Homo sapiens, A2780, 72 h, read-out: Cell Proliferation (IC50)

Chain of NAMPT (P43490 whole entry): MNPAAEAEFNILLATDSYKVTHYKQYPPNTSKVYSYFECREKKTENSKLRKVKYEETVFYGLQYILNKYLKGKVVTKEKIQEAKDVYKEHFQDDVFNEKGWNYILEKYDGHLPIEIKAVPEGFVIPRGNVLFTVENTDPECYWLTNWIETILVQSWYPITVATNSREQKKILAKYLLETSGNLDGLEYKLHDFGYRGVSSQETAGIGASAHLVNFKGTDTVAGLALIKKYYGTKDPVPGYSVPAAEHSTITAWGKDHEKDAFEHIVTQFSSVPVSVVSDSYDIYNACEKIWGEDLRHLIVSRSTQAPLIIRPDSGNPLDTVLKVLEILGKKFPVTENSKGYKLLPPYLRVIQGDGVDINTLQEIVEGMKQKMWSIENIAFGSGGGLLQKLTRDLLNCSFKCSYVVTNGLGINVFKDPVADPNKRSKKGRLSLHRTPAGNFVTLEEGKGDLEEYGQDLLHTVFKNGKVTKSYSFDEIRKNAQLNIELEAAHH

Row | SMILES | IC50 [1, 3] [nM] | IC50 [2] [nM] | IC50 [1, 4] [nM] | IC50 [1, 5] [nM]
1 | O=C(NCc1ccc([S+]([O-])C2CCN(CC(F)(F)F)CC2)cn1)c1cc2ccncc2o1 (stereo not shown) [Example 118, N-[[5-[[1-(2,2,2-trifluoroethyl)-4-piperidyl]sulfinyl]-2-pyridyl]rnethyl]furo[2,3-c]pyridine-2-carboxamide] | 12.2 | 76.1 | – | –
2 | O=C(NCc1ccc(S(=O)(=O)C2CCN(C3CCOCC3)CC2)cn1)N1Cc2ccncc2C1 [Example 119, N-[[5-[(1-tetrahydropyran-4 yl-4-piperidyl)sulfonyl]-2-pyridyl]methyl]-1,3-dihydropyrrolo[3,4-c]pyridine-2-carboxamide] | – | 37.5 | 14.5 | –
3 | O=C(NCc1ccc([S+]([O-])c2cccc(C(F)(F)F)c2)cn1)N1Cc2ccncc2C1 (stereo not shown) [Example 120, N-[[5-[3-(trifluoromethyl)phenyl]sulfinyl-2-pyridyl]methyl]-1,3-dihydropyrrolo[3,4-c]pyridine-2-carboxamide] | – | 11.7 | – | 7.59
4 | COCC(=O)N1CCC(S(=O)(=O)c2ccc(CNC(=O)N3Cc4ccncc4C3)nc2)CC1 [Example 121, N-[[5-[[1-(2-methoxyacetyl)-4-piperidyl]sulfonyl]-2-pyridyl]methyl]-1,3-dihydropyrrolo[3,4-c]pyridine-2-carboxamide] | – | 68.2 | – | 2000
5 | COCC(=O)N1CCC(S(=O)(=O)c2ccc(CNC(=O)c3cc4ccncc4o3)nc2)CC1 [Example 122, N-[[5-[[1-(2-methoxyacetyl)-4-piperidyl]sulfonyl]-2-pyridyl]methyl]furo[2,3-c]pyridine-2-carboxamide] | – | 103 | – | 46.3
6 | O=C(NCc1ccc(S(=O)(=O)c2cccc(N3CCOCC3)c2)cn1)c1cc2ccncc2o1 [Example 123, N-[[5-(3-morpholinophenyl)sulfonyl-2-pyridyl]methyl]furo[2,3-c]pyridine-2-carboxamide] | – | 21.8 | – | 19.1
7 | CS(=O)(=O)c1cccc(S(=O)(=O)c2ccc(CNC(=O)c3cc4ccncc4o3)nc2)c1 [Example 124, N-[[5-(3-methylsulfonylphenyl)sulfonyl-2-pyridyl]methyl]furo[2,3-c]pyridine-2-carboxamide] | – | 13 | – | 18.9
8 | O=C(NCc1ccc(S(=O)(=O)c2ccc(N3CCOCC3)nc2)cn1)N1Cc2ccncc2C1 [Example 125, N-[[5-[(6-morpholino-3-pyridyl)sulfonyl]-2-pyridyl]methyl]-1,3-dihydropyrrolo[3,4-c]pyridine-2-carboxamide] | – | 14 | – | 10.2
9 | O=C(NCc1ccc(S(=O)(=O)N2CCN(C3CCOCC3)CC2)cn1)N1Cc2ccncc2C1 [Example 126, N-[[5-(4-tetrahydropyran-4-ylpiperazin-1-yl)sulfonyl-2-pyridyl]methyl]-1,3-dihydropyrrolo[3,4-c]pyridine-2-carboxamide] | – | 68.4 | – | 56
10 | O=C(NCc1ccc(S(=O)(=O)N2CCN(C3CCOCC3)CC2)cn1)c1cc2ccncc2o1 [Example 127, N-[[5-(4-tetrahydropyran-4-ylpiperazin-1-yl)sulfonyl-2-pyridyl]methyl]furo[2,3-c]pyridine-2-carboxamide] | – | 49.2 | – | 31.3
11 | O=C(NCc1ccc(S(=O)(=O)C2CCN(C3CCOC3)CC2)cn1)c1cc2ccncc2o1 (stereo not shown) [Example 128, N-[[5-[(1-tetrahydrofuran-3-yl-4-piperidyl)sulfonyl]-2-pyridyl]methyl]furo[2,3-c]pyridine-2-carboxamide] | – | 73 | – | 25.4
12 | O=C(NCc1ccc(S(=O)(=O)C2CCN(C3CCOC3)CC2)cn1)N1Cc2ccncc2C1 (stereo not shown) [Example 129, N-[[5-[(1-tetrahydrofuran-3-yl-4-piperidyl)sulfonyl]-2-pyridyl]methyl]-1,3-dihydropyrrolo[3,4-c]pyridine-2-carboxamide] | – | 32.7 | – | 36.3
13 | CCCC(=O)N1CCC(S(=O)(=O)c2ccc(CNC(=O)c3cc4ccncc4o3)nc2)CC1 [Example 130, N-[[5-[(1-butanoyl-4-piperidyl)sulfonyl]-2-pyridyl]methyl]furo[2,3-c]pyridine-2-carboxamide] | – | 39.8 | – | 50.7
14 | O=C(NCc1ccc(S(=O)(=O)C2CCN(CC(F)(F)F)CC2)cn1)c1cc2ccncc2o1 [Example 131, N-[[5-[[1-(2,2,2-trifluoroethyl)-4-piperidyl]sulfonyl]-2-pyridyl]methyl]furo[2,3-c]pyridine-2-carboxamide] | – | 5.24 | 24.4 | –
15 | CS(=O)(=O)c1cccc(S(=O)(=O)c2ccc(CNC(=O)c3cnc4[nH]ncc4c3)nc2)c1 [Example 134, N-[[5-(3-methylsulfonylphenyl)sulfonyl-2-pyridyl]methyl]-1H-pyrazolo[3,4-b]pyridine-5-carboxamide] | – | 16.8 | – | 446
16 | CN1CCN(c2ccc(S(=O)(=O)c3ccc(CNC(=O)c4cc5ccncc5o4)nc3)cn2)CC1 [Example 135, N-[[5-[[6-(4-methylpiperazin-1-yl)-3-pyridyl]sulfonyl]-2-pyridyl]methyl]furo[2,3-c]pyridine-2-carboxamide] | 34.4 | 18 | – | –
17 | CS(=O)(=O)c1cccc(S(=O)(=O)c2ccc(CNC(=O)c3ccc4nccn4c3)nc2)c1 [Example 137, N-[[5-(3-methylsulfonylphenyl)sulfonyl-2-pyridyl]methyl]imidazo[1,2-a]pyridine-6-carboxamide] | – | 56.8 | – | 81.6
18 | O=C(NCc1ccc(S(=O)(=O)c2cnc(N3CCCC3)s2)cn1)c1cc2ccncc2o1 [Example 138, N-[[5-(2-pyrrolidin-1-ylthiazol-5-yl)sulfonyl-2-pyridyl]methyl]furo[2,3-c]pyridine-2-carboxamide] | – | 9.45 | – | 2.84
19 | COc1cc(OC)cc(S(=O)(=O)c2ccc(CNC(=O)c3cnc4[nH]ncc4c3)nc2)c1 [Example 139, N-[[5-(3,5-dimethoxyphenyl)sulfonyl-2-pyridyl]methyl]-1H-pyrazolo[3,4-b]pyridine-5-carboxamide] | – | 14.7 | – | 3.11
20 | O=C(NCc1ccc(S(=O)(=O)N2CCN(C3COC3)CC2)cn1)c1cc2ccncc2o1 [Example 141, N-[[5-[4-(oxetan-3-yl)piperazin-1-yl]sulfonyl-2-pyridyl]methyl]furo[2,3-c]pyridine-2-carboxamide] | – | 207 | – | 71.7
21 | O=C(NCc1ccc(S(=O)(=O)N2CCN(C3COC3)CC2)cn1)N1Cc2ccncc2C1 [Example 142, N-[[5-[4-(oxetan-3-yl)piperazin-1-yl]sulfonyl-2-pyridyl]methyl]-1,3-dihydropyrrolo[3,4-c]pyridine-2-carboxamide] | – | 220 | – | 255
22 | O=C(NCc1ccc(S(=O)(=O)C2CCN(CC(F)(F)F)CC2)cn1)N1Cc2ccncc2C1 [Example 143, N-[[5-[[1-(2,2,2-trifluoroethyl)-4-piperidyl]sulfonyl]-2-pyridyl)methyl]-1,3-dihydropyrrolo[3,4-c]pyridine-2-carboxamide] | – | 111 | – | 61.3
23 | CCN(C)c1ncc(S(=O)(=O)c2ccc(CNC(=O)c3ccc4nccn4c3)nc2)s1 [Example 145, N-[[5-[2-[ethyl(methyl)amino]thiazol-5-yl]sulfonyl-2-pyridyl]methyl]imidazo[1,2-a]pyridine-6-carboxamide] | – | 10.1 | – | 2.87
